The assay concerns the target T1, sodium-proton exchanger of subtype 3 (NHE3) (Homo sapiens, UniProt P48764).
T1 construct: expressed in transfected cells
T1 sequence (P48764 26-834): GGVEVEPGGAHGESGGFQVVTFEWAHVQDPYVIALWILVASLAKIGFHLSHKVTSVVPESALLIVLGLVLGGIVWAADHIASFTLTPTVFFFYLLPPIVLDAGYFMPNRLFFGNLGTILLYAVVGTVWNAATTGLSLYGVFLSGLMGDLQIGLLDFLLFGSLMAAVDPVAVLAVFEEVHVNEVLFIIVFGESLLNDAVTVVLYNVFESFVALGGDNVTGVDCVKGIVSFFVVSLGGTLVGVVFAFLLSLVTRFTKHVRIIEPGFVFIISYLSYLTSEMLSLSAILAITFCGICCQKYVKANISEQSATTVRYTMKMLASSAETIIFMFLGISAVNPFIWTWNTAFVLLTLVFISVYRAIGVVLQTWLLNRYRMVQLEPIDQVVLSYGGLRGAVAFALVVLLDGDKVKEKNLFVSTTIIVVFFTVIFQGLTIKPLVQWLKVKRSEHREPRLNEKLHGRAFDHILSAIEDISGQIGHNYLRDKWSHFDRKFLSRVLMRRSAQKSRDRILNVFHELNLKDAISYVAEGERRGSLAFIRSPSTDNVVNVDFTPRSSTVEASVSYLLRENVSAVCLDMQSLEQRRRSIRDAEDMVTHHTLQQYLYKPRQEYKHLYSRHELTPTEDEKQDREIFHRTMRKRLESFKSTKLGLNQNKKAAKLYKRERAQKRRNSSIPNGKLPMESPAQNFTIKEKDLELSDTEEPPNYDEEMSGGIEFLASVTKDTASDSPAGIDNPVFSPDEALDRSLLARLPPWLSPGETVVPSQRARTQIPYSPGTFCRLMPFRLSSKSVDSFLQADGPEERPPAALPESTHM
The assay is described as follows: Recovery of intracellular pH (pHi) after acidification in LAP1 cells stably expressing NHE3 (BCECF fluorescence, FLIPR). It is filed as cell-based. The conditions noted are these: LAP1 cells stably expressing NHE3; pH recovery after acidification; range 1 is % inhibition at 10 μM; read-out: Activity range (inhibitory effect on NHE3).

In the case of `Clc1cc(Cl)c2c(c1)[C@H](Oc1ccc(-n3cncn3)cc1)[C@@H](N1CCOCC1)C2` (racemic) [Example 549, 4-[rac-trans-(1,2)-4,6-dichloro-1-(4-[1,2,4]triazol-1-ylphenoxy)indan-2-yl]morpholine], the inhibition at 10 µM fell in the range of 20 to 50%.

Consider `CN1CCN(C(=O)c2ccc(O[C@H]3c4ccccc4C[C@@H]3N3CCCC3)cc2)CC1` (racemic) [Example 22, (4-methylpiperazin-1-yl)-[4-(rac-trans-(1,2)-2-pyrrolidin-1-ylindan-1-yloxy)phenyl]methanone], for which the IC50 was in the range of 1000 to 10000 nM.

For the compound `N#Cc1ccc(O[C@H]2c3ccccc3CC[C@@H]2N2CCC[C@@H](N)C2)cc1F` (racemic) [Example 510, 4-[rac-trans-(1,2)-2-((R)-3-aminopiperidin-1-yl)-1,2,3,4-tetrahydronaphthalen-1-yloxy]-2-fluorobenzonitrile], the IC50 is less than 1000 nM.

For the compound `N#Cc1ccc(O[C@@H]2c3ccccc3C[C@H]2N2CCC(CN)C2)cc1Cl` (mixture of isomers) [Example 540, 4-[rac-trans-(1,2)-2-(3-aminomethylpyrrolidin-1-yl)indan-1-yloxy]-2-chlorobenzonitrile], the IC50 lay in the range of 1000 to 10000 nM.
